Drawing on ChEMBL document CHEMBL1136240, “Synthesis and anthelmintic activity of cyclohexadepsipeptides with (S,S,S,R,S,R)-configuration” (Bioorg Med Chem Lett, 2003), this text covers Egg reduction and logD for six compounds.

Molecules are shown by their SMILES.

Data set [1] relates to Ovis aries. As to the kind of experiment: In vivo antihelminthic activity against Haemonchus contortus in sheep at a dose of 0.50 mg kg-1. As to conditions: dose 0.5 mg kg-1. It is filed as functional.
Data set [2] has as its system Ovis aries. As to the kind of experiment: In vivo antihelminthic activity against Haemonchus contortus in sheep at a dose of 0.250 mg kg-1. It is filed as functional. As to conditions: dose 0.25 mg kg-1.
Data set [3] is described as follows: LogP (Octanol-water partition coefficient) was measured at pH 2.3. It is filed as physicochemical.
Data set [4] deals with Ovis aries. As to the kind of experiment: In vivo antihelminthic activity against Haemonchus contortus in sheep at a dose of 0.10 mg kg-1. Conditions: dose 0.1 mg kg-1. It is filed as functional.
In data set [5] the test system is Ovis aries. As to the kind of experiment: In vivo antihelminthic activity against Haemonchus contortus in sheep at a dose of 0.05 mg kg-1. It counts as functional.

In the case of `CCC(C)[C@H]1C(=O)O[C@H](C(C)C)C(=O)N(C)[C@@H](C(C)CC)C(=O)O[C@H](C(C)C)C(=O)N(C)[C@@H](C(C)CC)C(=O)O[C@H](C(C)C)C(=O)N1C` (stereo partly specified), the Egg reduction result in the data set on Ovis aries [1] was “>=95%”.

As usually defined, the logD is lipophilicity at a set pH, counting ionised and neutral species. Read a low logD as lower lipophilicity. `CCC(C)[C@H]1C(=O)O[C@H](C)C(=O)N(C)[C@@H](C(C)CC)C(=O)O[C@H](C)C(=O)N(C)[C@@H](C(C)CC)C(=O)OCC(=O)N1C` (stereo partly specified): the Egg reduction result in the data set on Ovis aries [2] is recorded as “>=95%”. For the same compound, the logD in data set [3] was determined as 4.

Turning to `CC[C@H](C)[C@H]1C(=O)O[C@H](C)C(=O)N(C)[C@@H]([C@@H](C)CC)C(=O)O[C@H](C)C(=O)N(C)[C@@H](C)C(=O)OC(C)C(=O)N1C` (single isomer, unassigned), the Egg reduction result with Ovis aries [4] was “>=95%”. The compound further returned a logD in data set [3] of 3.1.

Take `CCC(C)[C@H]1C(=O)O[C@H](C)C(=O)N(C)[C@@H](C(C)CC)C(=O)O[C@H](C)C(=O)N(C)[C@@H](C(C)CC)C(=O)O[C@H](C)C(=O)N1C` (stereo partly specified): in the data set with Ovis aries [1], the Egg reduction result was “>=95%”. In data set [3], this compound returned a logD of 4.2.

As to `CCCC[C@H]1OC(=O)[C@H](C(C)CC)N(C)C(=O)[C@@H](C)OC(=O)[C@H](C(C)CC)N(C)C(=O)[C@@H](C)OC(=O)[C@H](C(C)CC)N(C)C1=O` (stereo partly specified), the Egg reduction entry in the data set on Ovis aries [4] is listed as “>=95%”. In addition, in data set [3], the logD worked out at 5.14.

Take `CCC(C)[C@H]1C(=O)O[C@H](C)C(=O)N(C)[C@@H](C)C(=O)O[C@H](C)C(=O)N(C)[C@@H](C(C)CC)C(=O)O[C@H](C)C(=O)N1C` (stereo partly specified): in the data set on Ovis aries [5], the Egg reduction entry was “>=95%”. The compound further displayed a logD in data set [3] of 3.26.
